Converted amounts (≈) assume the structure as drawn.
Assays:
Escherichia coli [1] = assay: Antibacterial activity against Escherichia coli NIHJ after 24 hrs by twofold dilution assay; assay type: functional
Pseudomonas aeruginosa = assay: microbe, parasite or virus in culture; assay type: functional; conditions: Pseudomonas aeruginosa, 104, 24 h
Description: Antibacterial activity against Pseudomonas aeruginosa 104 after 24 hrs by twofold dilution assay

Proteus mirabilis [2] = assay: microbe, parasite or virus in culture; assay type: functional; conditions: GN 2425, 24 h
Description: Antibacterial activity against Proteus mirabilis GN 2425 after 24 hrs by twofold dilution assay

Klebsiella pneumoniae = assay: microbe, parasite or virus in culture; assay type: functional; conditions: PCI-602, 24 h
Description: Antibacterial activity against Klebsiella pneumoniae PCI-602 after 24 hrs by twofold dilution assay

Staphylococcus aureus = assay: microbe, parasite or virus in culture; assay type: functional; conditions: 209P, 24 h
Description: Antibacterial activity against Staphylococcus aureus 209P after 24 hrs by twofold dilution assay

[3] = Drug level in Wistar rat serum at 50 mg/kg, po measured at 4 hrs
Escherichia coli [4] = assay: Antibacterial activity against Escherichia coli 0111 infected in ICR mouse administered orally 0.5 hr and 6 hrs post infection measured 1 week post challenge; assay type: functional; conditions: Escherichia coli, 0111, po
[5] = Drug level in Wistar rat serum at 50 mg/kg, po measured at 0.5 hr
Proteus mirabilis [6] = assay: Antibacterial activity against Proteus mirabilis GN2425 infected in ICR mouse administered orally 0.5 hr and 6 hrs post infection measured 1 week post challenge; assay type: functional; conditions: GN2425, po
[7] = Drug level in Wistar rat serum at 50 mg/kg, po measured at 6 hrs; assay type: ADME, organism-based; parameters: dose 50 mg/kg, route oral; conditions: read-out: Drug uptake
[8] = Drug level in Wistar rat serum at 50 mg/kg, po measured at 2 hrs
[9] = Drug recovery in Wistar rat urine at 50 mg/kg, po measured over 24 hrs
[10] = Drug level in Wistar rat serum at 50 mg/kg, po measured at 1 hr

| Compound | MIC (Escherichia coli [1]) | MIC (Pseudomonas aeruginosa) | MIC (Proteus mirabilis [2]) | MIC (Klebsiella pneumoniae) | MIC (Staphylococcus aureus) | concentration at 4 h [3] | concentration at 0.5 h [5] | concentration at 6 h [7] | concentration at 2 h [8] | dose excreted at 24 h [9] | concentration at 1 h [10] | ED50 (Escherichia coli [4]) | ED50 (Proteus mirabilis [6]) |
| --- | --- | --- | --- | --- | --- | --- | --- | --- | --- | --- | --- | --- | --- |
| C=CCOn1cc(C(=O)O)c(=O)c2c3sc(=O)n(CC=C)c3ccc21 | 100 µg/mL (≈ 279 µM) | > 200 µg/mL | > 200 µg/mL | 200 µg/mL (≈ 558 µM) | 50 µg/mL (≈ 140 µM) | – | – | – | – | – | – | – | – |
| C=CCOn1cc(C(=O)O)c(=O)c2c3c(ccc21)OCOC3 | > 200 µg/mL | > 200 µg/mL | > 200 µg/mL | > 200 µg/mL | > 50 µg/mL | – | – | – | – | – | – | – | – |
| CCn1cc(C(=O)O)c(=O)c2cc3c(cc21)OCO3 [OXOLINIC ACID] | 0.39 µg/mL (≈ 1.49 µM) | 6.25 µg/mL (≈ 23.9 µM) | 0.39 µg/mL (≈ 1.49 µM) | 0.78 µg/mL (≈ 2.99 µM) | 3.13 µg/mL (≈ 12 µM) | 4800 ng/mL | 700 ng/mL | 2700 ng/mL | 4700 ng/mL | 2.4% | 1500 ng/mL | 20 mg/kg | 48 mg/kg |
| COn1cc(C(=O)O)c(=O)c2ccc3c(c21)CCC3 | 12.5 µg/mL (≈ 48.2 µM) | > 200 µg/mL | 50 µg/mL (≈ 193 µM) | 3.13 µg/mL (≈ 12.1 µM) | 25 µg/mL (≈ 96.4 µM) | – | – | – | – | – | – | – | – |
| COn1cc(C(=O)O)c(=O)c2c3sc(=O)n(C)c3ccc21 | 0.2 µg/mL (≈ 0.653 µM) | 12.5 µg/mL (≈ 40.8 µM) | 0.39 µg/mL (≈ 1.27 µM) | 0.2 µg/mL (≈ 0.653 µM) | 6.25 µg/mL (≈ 20.4 µM) | 1900 ng/mL | 2900 ng/mL | – | 3700 ng/mL | 1.8% | 4500 ng/mL | – | – |
| CCn1cc(C(=O)O)c(=O)c2ccc3c(c21)CCC3 | 1.56 µg/mL (≈ 6.06 µM) | 50 µg/mL (≈ 194 µM) | 6.25 µg/mL (≈ 24.3 µM) | 0.39 µg/mL (≈ 1.52 µM) | 3.13 µg/mL (≈ 12.2 µM) | – | – | – | – | – | – | – | – |
| CCn1cc(C(=O)O)c(=O)c2c3c(ccc21)OCOC3 | 6.25 µg/mL (≈ 22.7 µM) | > 200 µg/mL | 12.5 µg/mL (≈ 45.4 µM) | – | 3.13 µg/mL (≈ 11.4 µM) | – | – | – | – | – | – | – | – |
| O=C(O)c1cn(OCc2ccccc2)c2ccc3c(sc(=O)n3Cc3ccccc3)c2c1=O | > 200 µg/mL | > 200 µg/mL | > 200 µg/mL | > 200 µg/mL | > 1.56 µg/mL | – | – | – | – | – | – | – | – |
| CCn1cc(C(=O)O)c(=O)c2c3sc(=O)n(C)c3ccc21 [TIOXACIN] | 0.1 µg/mL (≈ 0.329 µM) | > 200 µg/mL | 0.39 µg/mL (≈ 1.28 µM) | 0.2 µg/mL (≈ 0.657 µM) | 3.13 µg/mL (≈ 10.3 µM) | 450 ng/mL | 300 ng/mL | 360 ng/mL | 320 ng/mL | 0.3% | 360 ng/mL | – | – |

Second part, led by results:

| MIC (Escherichia coli [1]) | MIC (Pseudomonas aeruginosa) | MIC (Proteus mirabilis [2]) | MIC (Klebsiella pneumoniae) | MIC (Staphylococcus aureus) | concentration at 4 h [3] | concentration at 0.5 h [5] | concentration at 6 h [7] | concentration at 2 h [8] | dose excreted at 24 h [9] | concentration at 1 h [10] | Compound | ED50 (Escherichia coli [4]) | ED50 (Proteus mirabilis [6]) |
| --- | --- | --- | --- | --- | --- | --- | --- | --- | --- | --- | --- | --- | --- |
| 50 µg/mL (≈ 165 µM) | > 200 µg/mL | 100 µg/mL (≈ 330 µM) | > 200 µg/mL | 50 µg/mL (≈ 165 µM) | – | – | – | – | – | – | O=C(O)c1cn(OCC2CC2)c2cc3c(cc2c1=O)OCO3 | – | – |
| 100 µg/mL (≈ 343 µM) | 100 µg/mL (≈ 343 µM) | 200 µg/mL (≈ 687 µM) | > 200 µg/mL | 50 µg/mL (≈ 172 µM) | – | – | – | – | – | – | CCCOn1cc(C(=O)O)c(=O)c2cc3c(cc21)OCO3 | – | – |
| 100 µg/mL (≈ 383 µM) | > 200 µg/mL | > 200 µg/mL | 50 µg/mL (≈ 191 µM) | 50 µg/mL (≈ 191 µM) | – | – | – | – | – | – | COn1cc(C(=O)O)c(=O)c2c3c(ccc21)OCC3 | – | – |
| 6.25 µg/mL (≈ 21.6 µM) | 200 µg/mL (≈ 691 µM) | 50 µg/mL (≈ 173 µM) | 3.13 µg/mL (≈ 10.8 µM) | 12.5 µg/mL (≈ 43.2 µM) | – | – | – | – | – | – | C=CCOn1cc(C(=O)O)c(=O)c2cc3c(cc21)OCO3 | – | – |
| 0.78 µg/mL (≈ 2.99 µM) | 12.5 µg/mL (≈ 47.9 µM) | 0.39 µg/mL (≈ 1.49 µM) | 0.2 µg/mL (≈ 0.766 µM) | 6.25 µg/mL (≈ 23.9 µM) | 1700 ng/mL | 6200 ng/mL | – | 4000 ng/mL | 11% | 4700 ng/mL | COn1cc(C(=O)O)c(=O)c2cc3c(cc21)CCO3 | – | – |
| 12.5 µg/mL (≈ 45.1 µM) | > 200 µg/mL | 200 µg/mL (≈ 721 µM) | 12.5 µg/mL (≈ 45.1 µM) | 25 µg/mL (≈ 90.2 µM) | – | – | – | – | – | – | COn1cc(C(=O)O)c(=O)c2c3c(ccc21)OCOC3 | – | – |
| 3.13 µg/mL (≈ 11.3 µM) | 100 µg/mL (≈ 361 µM) | 50 µg/mL (≈ 180 µM) | 1.56 µg/mL (≈ 5.63 µM) | 25 µg/mL (≈ 90.2 µM) | – | – | – | – | – | – | CCOn1cc(C(=O)O)c(=O)c2cc3c(cc21)OCO3 | – | – |
| 6.25 µg/mL (≈ 21.5 µM) | 200 µg/mL (≈ 687 µM) | 50 µg/mL (≈ 172 µM) | 3.13 µg/mL (≈ 10.7 µM) | 25 µg/mL (≈ 85.8 µM) | – | – | – | – | – | – | CC(C)On1cc(C(=O)O)c(=O)c2cc3c(cc21)OCO3 | – | – |
| 100 µg/mL (≈ 341 µM) | 100 µg/mL (≈ 341 µM) | 100 µg/mL (≈ 341 µM) | > 200 µg/mL | 100 µg/mL (≈ 341 µM) | – | – | – | – | – | – | O=C(O)c1cn(OCCO)c2cc3c(cc2c1=O)OCO3 | – | – |
| 0.39 µg/mL (≈ 1.48 µM) | 12.5 µg/mL (≈ 47.5 µM) | 0.39 µg/mL (≈ 1.48 µM) | 0.39 µg/mL (≈ 1.48 µM) | 6.25 µg/mL (≈ 23.7 µM) | 19500 ng/mL | 11600 ng/mL | 1500 ng/mL | 22300 ng/mL | 7.5% | 27800 ng/mL | COn1cc(C(=O)O)c(=O)c2cc3c(cc21)OCO3 [MILOXACIN] | 7.2 mg/kg | 30 mg/kg |
